Test results taken from patent US5252601A, “2-mercaptomethylene-tetrahydronaphthalene and indane-2-carboxamide derivatives as enkephalinase inhibitors” (Merrell Dow Pharmaceuticals Inc., priority 1992, dated 1993).
Where two headings read alike, the source gives them in different places.

What was measured:
Enkephalinase = target: T1, Enkephalinase (Rattus norvegicus, UniProt P07861); test: Enkephalinase inhibition, fluorometric assay with dansyl-D-AlaGly(p-nitro)PheGly substrate; assay type: biochemical; conditions: 50 mM HEPES pH 7.4, 25° C.; for Ki: enzyme partially purified from rat kidney, 12 μM substrate
T1 construct: Enkephalinase is partially purified from rat kidney; from tissue; host or cells: rat kidney, microvilli fraction (Triton X-100 extract or proteolytic treatment, then Mono Q anion exchange)
T1 sequence (P07861 1-750): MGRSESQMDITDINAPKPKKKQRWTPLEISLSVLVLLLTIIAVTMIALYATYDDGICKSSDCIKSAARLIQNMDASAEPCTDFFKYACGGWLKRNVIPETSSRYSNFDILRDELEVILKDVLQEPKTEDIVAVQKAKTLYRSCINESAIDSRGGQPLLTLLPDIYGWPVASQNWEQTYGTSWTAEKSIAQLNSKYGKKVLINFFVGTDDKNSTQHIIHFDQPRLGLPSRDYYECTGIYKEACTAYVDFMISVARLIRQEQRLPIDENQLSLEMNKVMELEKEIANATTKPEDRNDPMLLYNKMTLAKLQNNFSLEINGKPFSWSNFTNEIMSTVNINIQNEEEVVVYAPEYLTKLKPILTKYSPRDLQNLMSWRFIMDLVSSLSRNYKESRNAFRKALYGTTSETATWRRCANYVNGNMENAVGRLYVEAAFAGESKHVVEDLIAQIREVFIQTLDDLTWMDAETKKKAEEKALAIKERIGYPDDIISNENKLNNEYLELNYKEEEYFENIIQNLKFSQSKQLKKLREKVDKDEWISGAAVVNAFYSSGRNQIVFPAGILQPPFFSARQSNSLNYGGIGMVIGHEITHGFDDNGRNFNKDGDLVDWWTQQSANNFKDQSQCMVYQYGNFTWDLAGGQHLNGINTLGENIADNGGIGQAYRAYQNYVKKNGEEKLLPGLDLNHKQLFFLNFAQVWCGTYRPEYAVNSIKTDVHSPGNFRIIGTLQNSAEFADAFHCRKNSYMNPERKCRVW
Excerpt: Enkephalinase is partially purified from rat kidney. The enzyme is extracted from the microvilli fraction by using Triton X-100 according to the method of Malfroy and Schwartz [J. Biol. Chem. 259, 14365-14370 (1984)] or by using a proteolytic treatment according to the method of Almenoff and Orlowski [Biochem. 22, 590-599 (1983)]. The enzyme is further purified by anion exchange chromatography (Mono QTM column, Pharmacia) using a Pharmacia FPLC system. The enzyme activity may be measured by the fluorometric methods of Florentin et al. [Anal. Biochem. 141, 62-69 (1984)] or of Almenoff and Orlowski [J. Neurochemistry 42, 151-157 (1984)]. […] The substrate (and inhibitor) is added from a concentrated stock solution in DMSO (up to […] DMSO final volume). The enzyme in a small volume (approximately 0.1 μg of FPLC purified protein) is added to initiate the reaction and the rate of fluorecense increase is recorded continuously using a fluorometer (excitation at 339 nm, emission at 562 nm).

[1] = tested on: specific binding sites in various tissues including kidney, adrenal, aorta, and vascular smooth muscle; conditions: Needleman, Hypertension 7, 469 (1985), cited from earlier work

| Compound | Ki (Enkephalinase) | also measured |
| --- | --- | --- |
| O=C(N[C@H]1CC[C@@H](C(=O)O)CC1)C1(CS)CCc2ccccc2C1 (relative stereo) [100,552, 4-[[[1,2,3,4-Tetrahydro-2-(mercarptomethyl)-2-naphthalenyl]carbonyl]amino]- cis-cyclohexanecarboxylic acid] | 0.6 nM | – |
| O=C(O)CCNC(=O)C1(CS)CCc2ccccc2C1 (stereo not drawn) [100,185, N-[[1,2,3,4-Tetrahydro-2-(mercarptomethyl)-2-naphthalenyl]carbonyl]-β-alanine] | ≤ 0.2 nM | – |
| O=C(O)CNC(=O)C1(CS)CCc2ccccc2C1 (centres unmarked) [100,250, N-[[1,2,3,4-Tetrahydro-2-(mercarptomethyl)-2-naphthalenyl]carbonyl]-glycine] | 0.4 nM | – |
| CC(C)[C@H](NC(=O)C1(CS)CCc2ccccc2C1)C(=O)O (stereo partly drawn) [101,782, N-[[1,2,3,4-Tetrahydro-2-(mercarptomethyl)-2-naphthalenyl]carbonyl]-L-valine] | 2 nM | – |
| C[C@H](NC(=O)C1(CS)CCc2ccccc2C1)C(=O)O (stereo partly drawn) [101,890, N-[[1,2,3,4-Tetrahydro-2-(mercarptomethyl)-2-naphthalenyl]carbonyl]-L-alanine] | 0.3 nM | – |
| ANP: family of naturally-occurring peptides which are involved in the homeostatic regulation of blood pressure, as well as sodium and water levels | – | Kd ([1]; affinities ranging from about, read-out: affinity (lower end of range)): ≥ 0.05 nM; Kd ([1]; affinities ranging to about, read-out: affinity (upper end of range)): ≤ 500 nM |
| dansyl-D-AlaGly(p-nitro)PheGly [reference compound] | – | Km (Enkephalinase; substrate of the assay): 40 µM |
